Measurements published in BindingDB's records for doi:10.1021/acs.jmedchem.0c02069 (Indiana University, 2021).
Peptide text beside a SMILES is read from it.

Molecular target: Glucagon receptor (Homo sapiens, UniProt P47871)
Test: Displacement of 125I-glucagon from human GCGR expressed in HEK293 cells membranes incubated for 6 hrs by liquid scintillation counting method

Glucagon receptor, sequence (P47871 whole entry): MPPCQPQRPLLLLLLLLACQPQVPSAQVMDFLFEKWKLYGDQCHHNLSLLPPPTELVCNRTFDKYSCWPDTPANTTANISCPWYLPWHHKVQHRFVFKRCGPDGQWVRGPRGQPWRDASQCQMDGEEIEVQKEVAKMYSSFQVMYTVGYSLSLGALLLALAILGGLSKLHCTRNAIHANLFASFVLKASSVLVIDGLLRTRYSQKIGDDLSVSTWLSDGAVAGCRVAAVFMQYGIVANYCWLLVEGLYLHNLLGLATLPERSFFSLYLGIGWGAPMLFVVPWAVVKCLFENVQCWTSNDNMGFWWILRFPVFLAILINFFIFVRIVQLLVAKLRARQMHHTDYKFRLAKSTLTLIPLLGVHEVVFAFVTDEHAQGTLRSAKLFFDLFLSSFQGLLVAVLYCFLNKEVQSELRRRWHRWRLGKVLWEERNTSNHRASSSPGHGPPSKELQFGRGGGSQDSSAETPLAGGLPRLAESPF

Row | Compound | IC50 [nM]
1 | CSCC[C@H](NC(=O)[C@H](CC(C)C)NC(=O)[C@H](Cc1c[nH]c2ccccc12)NC(=O)[C@H](CCC(N)=O)NC(=O)[C@@H](NC(=O)[C@H](Cc1ccccc1)NC(=O)[C@H](CC(=O)O)NC(=O)[C@H](CCC(N)=O)NC(=O)[C@H](C)NC(=O)[C@H](CCCNC(=N)N)NC(=O)[C@H](CCCNC(=N)N)NC(=O)[C@H](CO)NC(=O)[C@H](CC(=O)O)NC(=O)[C@H](CC(C)C)NC(=O)[C@H](Cc1ccc(O)cc1)NC(=O)[C@H](CCCCN)NC(=O)[C@H](CO)NC(=O)[C@H](Cc1ccc(O)cc1)NC(=O)[C@H](CSCC(=O)O)NC(=O)[C@H](CO)NC(=O)[C@@H](NC(=O)[C@H](Cc1ccccc1)NC(=O)[C@@H](NC(=O)CNC(=O)[C@H](CCC(N)=O)NC(=O)[C@@H](N)CO)[C@@H](C)O)[C@@H](C)O)C(C)C)C(=O)N[C@@H](CC(N)=O)C(=O)N[C@H](C(N)=O)[C@@H](C)O | 13
2 | CSCC[C@H](NC(=O)[C@H](CC(C)C)NC(=O)[C@H](Cc1c[nH]c2ccccc12)NC(=O)[C@H](CCC(N)=O)NC(=O)[C@@H](NC(=O)[C@H](Cc1ccccc1)NC(=O)[C@H](CC(=O)O)NC(=O)[C@H](CCC(N)=O)NC(=O)[C@H](C)NC(=O)[C@H](CCCNC(=N)N)NC(=O)[C@H](CCCNC(=N)N)NC(=O)[C@H](CO)NC(=O)[C@H](CC(=O)O)NC(=O)[C@H](CC(C)C)NC(=O)[C@H](Cc1ccc(O)cc1)NC(=O)[C@H](CCCCN)NC(=O)[C@H](CO)NC(=O)[C@H](Cc1ccc(O)cc1)NC(=O)[C@H](CCC(=O)O)NC(=O)[C@H](CO)NC(=O)[C@@H](NC(=O)[C@@H](O)Cc1ccccc1)[C@@H](C)O)C(C)C)C(=O)N[C@@H](CC(N)=O)C(=O)N[C@H](C(N)=O)[C@@H](C)O (HELM PEPTIDE1{[O=C([C@@H](O)Cc1ccccc1)[*:2]].T.S.E.Y.S.K.Y.L.D.S.R.R.A.Q.D.F.V.Q.W.L.M.N.T.[am]}$$$$V2.0) | 12
